Measurements as given in US6339045B1, “N-(unsubstituted or substituted)-4-substituted-6-(unsubstituted or substituted)phenoxy-2-pyridinecarboxamides or thiocarboxamides, processes for producing the same, and herbicides” (Kureha Kagaku Kogyo Kabushiki Kaisha, priority 1995, dated 2002).

Assays:
Test in all cases: Herbicidal effect by foliage and soil treatment
Format in all cases: in vivo
Details in all cases: 10 g ai/10a, evaluated after 14 days
[1] = system: black nightshade (Solanum nigrum)
Procedure, shortened: (§1)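 Read-out: rated growth inhibition relative to non-treated plants 14 days after spraying. Young plants (cotyledon to two leaves) received a foliage-and-soil spray of compound in aqueous Tween 20 at a controlled rate, greenhouse at 19–25 °C.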

[2] = system: cleavers (Galium aparine)
Procedure, shortened: as §1

[3] = system: common blackjack (Bidens pilosa)
Procedure, shortened: as §1

[4] = system: common chickweed (Stellaria media)
Procedure, shortened: as §1

[5] = system: field bindweed (Convolvulus arvensis)
Procedure, shortened: as §1

[6] = system: ivyleafspeedwell (Veronica hederaefolia)
Procedure, shortened: as §1

[7] = system: kediock (Sinapis arvensis)
Procedure, shortened: as §1

[8] = system: redroot pigweed (Amaranthus retroflexus)
Procedure, shortened: as §1

[9] = system: sicklepod (Cassia obtusifolia)
Procedure, shortened: as §1

[10] = system: velvetleaf (Abutilon theophrasti)
Procedure, shortened: as §1

[11] = system: wild chamomile (Matricaria chamomilla)
Procedure, shortened: as §1

Row | SMILES | herbicidal activity rating, SN (Solanum nigrum) [1] | herbicidal activity rating, GA (Galium aparine) [2] | herbicidal activity rating, BP (Bidens pilosa) [3] | herbicidal activity rating, SM (Stellaria media) [4] | herbicidal activity rating, CA (Convolvulus arvensis) [5] | herbicidal activity rating, VH (Veronica hederaefolia) [6] | herbicidal activity rating, SA (Sinapis arvensis) [7] | herbicidal activity rating, AR (Amaranthus retroflexus) [8] | herbicidal activity rating, CO (Cassia obtusifolia) [9] | herbicidal activity rating, AT (Abutilon theophrasti) [10] | herbicidal activity rating, MC (Matricaria chamomilla) [11]
1 | COc1cc(Oc2cccc(C(F)(F)F)c2)nc(C(=O)NCCSC)c1 [Compound I-62] | 5 (percentage of weeds killed was not less than 80%) | 5 (percentage of weeds killed was not less than 80%) | 4 (percentage of weeds killed was not less than 60% and less than 80%) | 5 (percentage of weeds killed was not less than 80%) | 4 (percentage of weeds killed was not less than 60% and less than 80%) | 5 (percentage of weeds killed was not less than 80%) | 5 (percentage of weeds killed was not less than 80%) | 5 (percentage of weeds killed was not less than 80%) | 5 (percentage of weeds killed was not less than 80%) | 3 (percentage of weeds killed was not less than 40% and less than 60%) | 4 (percentage of weeds killed was not less than 60% and less than 80%)
2 | COc1cc(Oc2cccc(C(F)(F)F)c2)nc(C(=O)NC=C(Cl)Cl)c1 [Compound I-83, N-(2,2-dichlorovinyl)-4-methoxy-6-{3-(trifluoromethyl)phenoxy}-2-pyridine carboxamide] | 5 (percentage of weeds killed was not less than 80%) | 5 (percentage of weeds killed was not less than 80%) | 5 (percentage of weeds killed was not less than 80%) | 5 (percentage of weeds killed was not less than 80%) | 5 (percentage of weeds killed was not less than 80%) | 5 (percentage of weeds killed was not less than 80%) | 5 (percentage of weeds killed was not less than 80%) | 5 (percentage of weeds killed was not less than 80%) | 5 (percentage of weeds killed was not less than 80%) | 5 (percentage of weeds killed was not less than 80%) | 5 (percentage of weeds killed was not less than 80%)
3 | CC(C)NC(=O)c1cc(N(C)C)cc(Oc2cccc(C(F)(F)F)c2)n1 [Compound I-57, N-(i-propyl)-4-dimethylamino-6-{3-(trifluoromethyl)phenoxy}-2-pyridine carboxamide] | 5 (percentage of weeds killed was not less than 80%) | 5 (percentage of weeds killed was not less than 80%) | 5 (percentage of weeds killed was not less than 80%) | 4 (percentage of weeds killed was not less than 60% and less than 80%) | 4 (percentage of weeds killed was not less than 60% and less than 80%) | 5 (percentage of weeds killed was not less than 80%) | 5 (percentage of weeds killed was not less than 80%) | 5 (percentage of weeds killed was not less than 80%) | 5 (percentage of weeds killed was not less than 80%) | 4 (percentage of weeds killed was not less than 60% and less than 80%) | 3 (percentage of weeds killed was not less than 40% and less than 60%)
4 | COc1cc(Oc2cccc(SC(F)(F)F)c2)nc(C(=O)NC(C)C)c1 [Compound I-40, N-(i-propyl)-4-methoxy-6-{3-(trifluoromethylmercapto)phenoxy}-2-pyridine carboxamide] | 5 (percentage of weeds killed was not less than 80%) | 5 (percentage of weeds killed was not less than 80%) | 4 (percentage of weeds killed was not less than 60% and less than 80%) | 5 (percentage of weeds killed was not less than 80%) | 5 (percentage of weeds killed was not less than 80%) | 5 (percentage of weeds killed was not less than 80%) | 5 (percentage of weeds killed was not less than 80%) | 5 (percentage of weeds killed was not less than 80%) | 5 (percentage of weeds killed was not less than 80%) | 5 (percentage of weeds killed was not less than 80%) | 4 (percentage of weeds killed was not less than 60% and less than 80%)
5 | COc1cc(Oc2cccc(C(F)(F)F)c2)nc(C(=O)NCCSCCF)c1 [Compound I-92, N-{2-(2-fluoroethylmercapto)ethyl}-4-methoxy-6-{3-(trifluoromethyl)phenoxy}-2-pyridine carboxamide] | 5 (percentage of weeds killed was not less than 80%) | 5 (percentage of weeds killed was not less than 80%) | 4 (percentage of weeds killed was not less than 60% and less than 80%) | 4 (percentage of weeds killed was not less than 60% and less than 80%) | 4 (percentage of weeds killed was not less than 60% and less than 80%) | 5 (percentage of weeds killed was not less than 80%) | 5 (percentage of weeds killed was not less than 80%) | 5 (percentage of weeds killed was not less than 80%) | 5 (percentage of weeds killed was not less than 80%) | 3 (percentage of weeds killed was not less than 40% and less than 60%) | 3 (percentage of weeds killed was not less than 40% and less than 60%)
6 | COc1cc(Oc2cccc(C(F)(F)F)c2)nc(C(=O)NNC(C)(C)C)c1 [Compound I-126] | 5 (percentage of weeds killed was not less than 80%) | 5 (percentage of weeds killed was not less than 80%) | 5 (percentage of weeds killed was not less than 80%) | 5 (percentage of weeds killed was not less than 80%) | 4 (percentage of weeds killed was not less than 60% and less than 80%) | 5 (percentage of weeds killed was not less than 80%) | 5 (percentage of weeds killed was not less than 80%) | 5 (percentage of weeds killed was not less than 80%) | 5 (percentage of weeds killed was not less than 80%) | 5 (percentage of weeds killed was not less than 80%) | 4 (percentage of weeds killed was not less than 60% and less than 80%)
7 | COc1cc(Oc2cccc(C(F)(F)F)c2)nc(C(=O)NCCSCC(F)(F)F)c1 [Compound I-94] | 5 (percentage of weeds killed was not less than 80%) | 5 (percentage of weeds killed was not less than 80%) | 4 (percentage of weeds killed was not less than 60% and less than 80%) | 4 (percentage of weeds killed was not less than 60% and less than 80%) | 5 (percentage of weeds killed was not less than 80%) | 5 (percentage of weeds killed was not less than 80%) | 5 (percentage of weeds killed was not less than 80%) | 5 (percentage of weeds killed was not less than 80%) | 5 (percentage of weeds killed was not less than 80%) | 5 (percentage of weeds killed was not less than 80%) | 4 (percentage of weeds killed was not less than 60% and less than 80%)
8 | COc1cc(Oc2cccc(C(F)(F)F)c2)nc(C(=O)NO)c1 [Compound I-96, N-hydroxy-4-methoxy-6-{3-(trifluoromethyl)phenoxy}-2-pyridine carboxamide] | 5 (percentage of weeds killed was not less than 80%) | 5 (percentage of weeds killed was not less than 80%) | 4 (percentage of weeds killed was not less than 60% and less than 80%) | 5 (percentage of weeds killed was not less than 80%) | 3 (percentage of weeds killed was not less than 40% and less than 60%) | 5 (percentage of weeds killed was not less than 80%) | 5 (percentage of weeds killed was not less than 80%) | 5 (percentage of weeds killed was not less than 80%) | 5 (percentage of weeds killed was not less than 80%) | 3 (percentage of weeds killed was not less than 40% and less than 60%) | 1 (percentage of weeds killed was less than 20%)
